# Assay results reported in BindingDB's records for patent US12528814 (Nurix Therapeutics, 2026).
# Biological target: T1, Interleukin-1 receptor-associated kinase 4 (Homo sapiens, UniProt Q9NWZ3)
# T1 sequence (Q9NWZ3 whole entry): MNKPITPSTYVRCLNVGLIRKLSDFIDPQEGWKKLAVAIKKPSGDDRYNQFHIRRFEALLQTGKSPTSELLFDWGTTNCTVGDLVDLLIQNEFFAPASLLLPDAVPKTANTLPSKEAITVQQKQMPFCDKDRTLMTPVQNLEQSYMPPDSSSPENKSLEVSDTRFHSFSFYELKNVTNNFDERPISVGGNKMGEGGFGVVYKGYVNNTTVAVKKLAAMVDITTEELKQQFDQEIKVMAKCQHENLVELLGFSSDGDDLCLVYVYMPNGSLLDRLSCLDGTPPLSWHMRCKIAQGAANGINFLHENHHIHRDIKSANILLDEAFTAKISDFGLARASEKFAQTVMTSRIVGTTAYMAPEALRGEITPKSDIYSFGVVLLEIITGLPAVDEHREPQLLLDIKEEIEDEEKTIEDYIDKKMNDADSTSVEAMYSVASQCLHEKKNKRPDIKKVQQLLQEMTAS
# Experiment: IRAK4 Biochemical HTRF Kinase Assay
# Procedure: The binding capacities of certain bifunctional compounds of Formula (I) were determined using the CisBio HTRF KinEASE STK S1 Kit (#62ST1PEB, contains 5× Kinase buffer, 1× Detection Buffer, anti-phospho-serine/threonine-cryptate, Streptavidin-XL665, and STK-S1), which measures the phosphorylation of a biotinylated peptide substrate by IRAK4, according to the manufacturer's protocol. Briefly, test compounds in DMSO were serially diluted into 384 Plus White Proxiplate (PerkinElmer, #6008280) using a Labcyte Echo 550 Liquid Handler, at a concentration of 50× final in 200 nL of 100% DMSO. 7.8 μl of kinase solution, containing 1.28 nM IRAK4 in 1× Kinase Buffer (supplemented with 3 mM MgCl2, 0.01% Triton X-100, and 1 mM DTT) was added to each compound containing well and incubated at ambient temperature for 30 min. 2 μl of a reaction solution containing 5 μM STK-S1, 10 mM ATP, and 10 mM MgCl2 were added to each well to a final volume of 10 μl. Assay controls include wells containing kinase with no compound (DMSO only) and wells containing no kinase and no compound (DMSO only). The reactions were allowed to proceed at ambient temperature for 90 minutes. […] The plates were incubated for 60 minutes at ambient temperature and then read on an Envision Multilabel Reader (PerkinElmer). […]
structure (smiles),measurement,value
"CNc1cc(-c2ccc3cc(C#N)cnn23)ncc1-c1nnc(C23CCC(NC(=O)C4CCN(c5cccc6c5C(=O)N(C5CCC(=O)NC5=O)C6=O)CC4)(CC2)CC3)s1 (stereo unspecified) [US12528814, Example 136]",IC50,1.6 nM
